Source: the CheMixHub viscosity set
Several values for one entry are separate records, joined by “and”; a condition that tells them apart may be missing. Identical values can stand only once. ± gives the uncertainty stated by the source.

Test: xn = mol fraction of the nth substance listed

Cc1cccc2ccccc12 + CC(CC(C)(C)C)CC(C)(C)CC(C)(C)C
viscosity [mPa·s], 100 kPa
Conditions | x1 = 0.125 | x1 = 0.25 | x1 = 0.375 | x1 = 0.5 | x1 = 0.625 | x1 = 0.75 | x1 = 0.875
293.15 K | 3.46 ± 0.22 | 3.24 ± 0.21 | 3.09 ± 0.2 | 2.97 ± 0.19 | 2.88 ± 0.19 | 2.9 ± 0.19 | 3.02 ± 0.2
303.15 K | 2.75 ± 0.18 | 2.61 ± 0.17 | 2.47 ± 0.16 | 2.38 ± 0.15 | 2.32 ± 0.15 | 2.33 ± 0.15 | 2.4 ± 0.16
313.15 K | 2.29 ± 0.15 | 2.14 ± 0.14 | 2.02 ± 0.13 | 1.95 ± 0.13 | 1.9 ± 0.12 | 1.91 ± 0.12 | 1.97 ± 0.13
323.15 K | 1.86 ± 0.12 | 1.76 ± 0.11 | 1.7 ± 0.11 | 1.64 ± 0.1 | 1.6 ± 0.1 | 1.61 ± 0.1 | 1.64 ± 0.1

CCCCCCCCCO + CCOC(=O)OCC
101 kPa
Conditions | viscosity [mPa·s]
293.15 K, x1 = 0.008 | 0.816
293.15 K, x2 = 0.03967 | 9.964
293.15 K, x2 = 0.1094 | 7.69
293.15 K, x2 = 0.1857 | 5.899
293.15 K, x2 = 0.2865 | 4.28
293.15 K, x2 = 0.4032 | 3.037
293.15 K, x2 = 0.504 | 2.306
293.15 K, x2 = 0.5999 | 1.794
293.15 K, x2 = 0.6927 | 1.434
293.15 K, x2 = 0.8085 | 1.112
293.15 K, x2 = 0.8962 | 0.941
303.15 K, x1 = 0.00855 | 0.711
303.15 K, x2 = 0.03166 | 7.163
303.15 K, x2 = 0.1064 | 5.544
303.15 K, x2 = 0.1908 | 4.257
303.15 K, x2 = 0.2925 | 3.17
303.15 K, x2 = 0.4014 | 2.365
303.15 K, x2 = 0.5113 | 1.798
303.15 K, x2 = 0.62 | 1.39
303.15 K, x2 = 0.6981 | 1.173
303.15 K, x2 = 0.8041 | 0.949
303.15 K, x2 = 0.893 | 0.815
313.15 K, x1 = 0.00592 | 0.625
313.15 K, x2 = 0.06302 | 4.663
313.15 K, x2 = 0.1089 | 4.053
313.15 K, x2 = 0.1969 | 3.156
313.15 K, x2 = 0.301 | 2.399
313.15 K, x2 = 0.4008 | 1.879
313.15 K, x2 = 0.5098 | 1.458
313.15 K, x2 = 0.6011 | 1.199
313.15 K, x2 = 0.689 | 1.006
313.15 K, x2 = 0.8072 | 0.812
313.15 K, x2 = 0.8932 | 0.711

O=C[C@H](O)[C@@H](O)[C@@H](O)CO + O
viscosity, 101 kPa
Conditions | 293.15 K | 298.15 K | 303.15 K | 308.15 K | 313.15 K | 318.15 K
x1 = 0.0031 | 1.059 ± 0.013 mPa·s | – | 0.8425 ± 0.011 mPa·s | 0.7555 ± 0.0094 mPa·s | 0.6857 ± 0.0085 mPa·s | 0.6277 ± 0.0078 mPa·s
x1 = 0.006 | 1.122 ± 0.024 mPa·s and 1.122 ± 0.014 mPa·s (2×) | 0.9982 ± 0.021 mPa·s and 0.9982 ± 0.012 mPa·s (2×) | 0.8927 ± 0.019 mPa·s and 0.8927 ± 0.011 mPa·s (2×) | 0.7947 ± 0.017 mPa·s and 0.7947 ± 0.0098 mPa·s and 0.7947 ± 0.0099 mPa·s | 0.7187 ± 0.015 mPa·s and 0.7187 ± 0.0089 mPa·s (2×) | 0.6585 ± 0.014 mPa·s and 0.6585 ± 0.0081 mPa·s and 0.6585 ± 0.0082 mPa·s
x1 = 0.0063 | 1.122 ± 0.014 mPa·s | 0.9982 ± 0.013 mPa·s | 0.8927 ± 0.011 mPa·s | 0.7947 ± 0.01 mPa·s | 0.7187 ± 0.009 mPa·s | 0.6585 ± 0.0082 mPa·s
x1 = 0.013 | 1.232 ± 0.026 mPa·s and 1.232 ± 0.015 mPa·s (2×) | – | 0.9886 ± 0.021 mPa·s and 0.9886 ± 0.012 mPa·s (2×) | 0.8863 ± 0.019 mPa·s and 0.8863 ± 0.011 mPa·s (2×) | 0.7996 ± 0.017 mPa·s and 0.7996 ± 0.0099 mPa·s (2×) | 0.7229 ± 0.015 mPa·s and 0.7229 ± 0.0089 mPa·s and 0.7229 ± 0.009 mPa·s

CC1CCCCC1=O (centres undefined) + CCCCN
303.15 K, 101.33 kPa
Conditions | viscosity [mPa·s]
x2 = 0.1214 | 1.802 ± 0.049
x2 = 0.2017 | 1.906 ± 0.052
x2 = 0.3249 | 1.944 ± 0.053
x2 = 0.4512 | 1.826 ± 0.05
x2 = 0.5524 | 1.715 ± 0.047
x2 = 0.6849 | 1.417 ± 0.039
x2 = 0.8025 | 1.126 ± 0.031
x2 = 0.8938 | 0.855 ± 0.024

O=S(=O)([O-])[O-].[Na+].[Na+] + O
Conditions | viscosity [mPa·s]
293.15 K, 100 kPa, x1 = 0.003594 | 1.085 ± 0.023
293.15 K, 100 kPa, x1 = 0.004923 | 1.125 ± 0.031
293.15 K, 100 kPa, x1 = 0.01069 | 1.29 ± 0.027
293.15 K, 100 kPa, x1 = 0.01596 | 1.483 ± 0.032
293.15 K, 100 kPa, x1 = 0.02116 | 1.67 ± 0.035
293.15 K, 100 kPa, x1 = 0.02795 | 1.939 ± 0.041
293.15 K, 101.3 kPa, x1 = 0.0009 | 1.025 ± 0.022
293.15 K, 101.3 kPa, x1 = 0.0018 | 1.046 ± 0.022
293.15 K, 101.3 kPa, x1 = 0.00893 | 1.236 ± 0.026
293.15 K, 101.3 kPa, x1 = 0.0125 | 1.349 ± 0.029
293.15 K, 101.3 kPa, x1 = 0.0177 | 1.548 ± 0.033
293.15 K, 101.3 kPa, x1 = 0.02116 | 1.701 ± 0.036
298.15 K, 100 kPa, x1 = 6e-05 | 0.8907 ± 0.0073
298.15 K, 100 kPa, x1 = 0.00013 | 0.8915 ± 0.0073
298.15 K, 100 kPa, x1 = 0.00025 | 0.8935 ± 0.0073
298.15 K, 100 kPa, x1 = 0.00038 | 0.8955 ± 0.0074
298.15 K, 100 kPa, x1 = 0.003594 | 0.967 ± 0.021
298.15 K, 100 kPa, x1 = 0.01069 | 1.148 ± 0.024
298.15 K, 100 kPa, x1 = 0.01596 | 1.315 ± 0.028
298.15 K, 100 kPa, x1 = 0.02116 | 1.508 ± 0.032
298.15 K, 100 kPa, x1 = 0.02795 | 1.766 ± 0.038
298.15 K, 101 kPa, x1 = 0.00893 | 1.099 ± 0.064
298.15 K, 101 kPa, x1 = 0.0168 | 1.349 ± 0.082
298.15 K, 101 kPa, x1 = 0.0222 | 1.556 ± 0.098
298.15 K, 101 kPa, x1 = 0.03141 | 2.023 ± 0.14
298.15 K, 101.3 kPa, x1 = 0.0009 | 0.9113 ± 0.019
298.15 K, 101.3 kPa, x1 = 0.0018 | 0.9298 ± 0.02
298.15 K, 101.3 kPa, x1 = 0.00893 | 1.1 ± 0.023
298.15 K, 101.3 kPa, x1 = 0.0125 | 1.201 ± 0.025
298.15 K, 101.3 kPa, x1 = 0.0177 | 1.374 ± 0.029
298.15 K, 101.3 kPa, x1 = 0.02116 | 1.505 ± 0.032
298.15 K, 101.3 kPa, x1 = 0.02631 | 1.72 ± 0.036
298.15 K, 101.33 kPa, x1 = 0.03319 | 1.746 ± 0.046
303.15 K, 100 kPa, x1 = 0.003594 | 0.868 ± 0.018
303.15 K, 100 kPa, x1 = 0.01069 | 1.025 ± 0.022
303.15 K, 100 kPa, x1 = 0.01596 | 1.171 ± 0.025
303.15 K, 100 kPa, x1 = 0.02116 | 1.343 ± 0.029
303.15 K, 100 kPa, x1 = 0.02795 | 1.584 ± 0.034
303.15 K, 101.3 kPa, x1 = 0.0009 | 0.8166 ± 0.017
303.15 K, 101.3 kPa, x1 = 0.0018 | 0.8339 ± 0.018
303.15 K, 101.3 kPa, x1 = 0.00893 | 0.9866 ± 0.021
303.15 K, 101.3 kPa, x1 = 0.0125 | 1.076 ± 0.023
303.15 K, 101.3 kPa, x1 = 0.0177 | 1.229 ± 0.026
303.15 K, 101.3 kPa, x1 = 0.02116 | 1.345 ± 0.029
303.15 K, 101.3 kPa, x1 = 0.02631 | 1.531 ± 0.032
308.15 K, 100 kPa, x1 = 6e-05 | 0.7195 ± 0.0061
308.15 K, 100 kPa, x1 = 0.00013 | 0.7205 ± 0.0061
308.15 K, 100 kPa, x1 = 0.00025 | 0.722 ± 0.0061
308.15 K, 100 kPa, x1 = 0.00038 | 0.724 ± 0.0061
308.15 K, 100 kPa, x1 = 0.00128 | 0.7637 ± 0.0063
308.15 K, 100 kPa, x1 = 0.003594 | 0.787 ± 0.017
308.15 K, 100 kPa, x1 = 0.01069 | 0.933 ± 0.02
308.15 K, 100 kPa, x1 = 0.01596 | 1.053 ± 0.022
308.15 K, 100 kPa, x1 = 0.02116 | 1.205 ± 0.026
308.15 K, 100 kPa, x1 = 0.02795 | 1.419 ± 0.03
308.15 K, 101.3 kPa, x1 = 0.0009 | 0.7374 ± 0.016
308.15 K, 101.3 kPa, x1 = 0.0018 | 0.7529 ± 0.016
308.15 K, 101.3 kPa, x1 = 0.00893 | 0.8914 ± 0.019
308.15 K, 101.3 kPa, x1 = 0.0125 | 0.9716 ± 0.021
308.15 K, 101.3 kPa, x1 = 0.0177 | 1.107 ± 0.023
308.15 K, 101.3 kPa, x1 = 0.02116 | 1.21 ± 0.025
308.15 K, 101.3 kPa, x1 = 0.02631 | 1.373 ± 0.029
308.65 K, 100 kPa, x1 = 0.004923 | 0.803 ± 0.022
318.15 K, 101.3 kPa, x1 = 0.0009 | 0.6114 ± 0.013
318.15 K, 101.3 kPa, x1 = 0.0018 | 0.624 ± 0.013
318.15 K, 101.3 kPa, x1 = 0.00893 | 0.7405 ± 0.016
318.15 K, 101.3 kPa, x1 = 0.0125 | 0.8058 ± 0.017
318.15 K, 101.3 kPa, x1 = 0.0177 | 0.916 ± 0.019
318.15 K, 101.3 kPa, x1 = 0.02116 | 0.9978 ± 0.021
318.15 K, 101.3 kPa, x1 = 0.02631 | 1.127 ± 0.024
323.15 K, 101 kPa, x1 = 0.00893 | 0.676 ± 0.034
323.15 K, 101 kPa, x1 = 0.0168 | 0.819 ± 0.044
323.15 K, 101.33 kPa, x1 = 0.05655 | 1.545 ± 0.041
